We go through four molecules from patent US20110165195A1 (priority 2007, published 2011).

Data set [1] is described as follows: in vivo. To be noted: male, SD, rat, iv, 10 ug/kg.
A short description of data set [2]: in vivo. To be noted: male, SD, rat.
A short description of data set [3]: in vivo. The following applies: male, SD, rat, sc, 10 ug/kg.
Data set [4] in a line: in vivo. The following applies: male, SD, rat. This is another data set of the same source.
Data set [5] in a line: in vivo. The following applies: male, SD, rat. This is another data set of the same source.
A short description of data set [6]: in vivo. To be noted: male, SD, rat, iv, 10 ug/kg. The source holds these as a separate data set.
Data set [7] is described as follows: in vivo. To be noted: male, rat.
The conditions of data set [8]: rat, in vivo.
For data set [9], the system named is rat intestinal tract tissue. The following applies: in vivo; cited from earlier work.
The test system of a further data set is Caco-2 cell line. The following applies: cited from earlier work.

One may read the AUC as the area under the concentration-time curve, a measure of exposure. Read a low AUC as less exposure. Usually Cmax stands for the maximum level reached in the sampled fluid or tissue. By bioavailability is commonly meant dose-corrected exposure relative to a reference, in per cent. Lower therefore signals poor availability. In “in vivo [1]”, `CCCCCCCC(=O)OC[C@H](NC(=O)[C@H](CO)NC(=O)CN)C(=O)N[C@@H](Cc1ccccc1)C(=O)N[C@@H](CC(C)C)C(=O)N[C@@H](CO)C(=O)N1CCC[C@H]1C(=O)N[C@@H](CCC(=O)O)C(=O)N[C@@H](Cc1cnc[nH]1)C(=O)N[C@@H](CCC(N)=O)C(=O)N[C@@H](CCCNC(=N)N)C(=O)N[C@H](C(=O)N[C@@H](CCC(N)=O)C(=O)N[C@@H](CCC(N)=O)C(=O)N[C@@H](CCCNC(=N)N)C(=O)N[C@@H](CCCCN)C(=O)N[C@@H](CCC(=O)O)C(=O)N[C@@H](CO)C(=O)N[C@@H](CCCCN)C(=O)N[C@@H](CCCCN)C(=O)N1CCC[C@H]1C(=O)N1CCC[C@H]1C(=O)N[C@@H](C)C(=O)N[C@@H](CCCCN)C(=O)N[C@@H](CC(C)C)C(=O)N[C@@H](CCC(N)=O)C(=O)N1CCC[C@H]1C(=O)N[C@@H](CCCNC(=N)N)C(=O)O)C(C)C` [human ghrelin] gave an AUC of 3.43 ng·h/mL and a C0 of 40.7 ng/mL. For the same molecule, in “in vivo [2]”, the AUC was 0.533 ng·h/mL, the Cmax was determined as 2.25 ± 2 ng/mL and the bioavailability came to 1.6 ± 1.4%.
In the case of `CC[C@H](C)[C@H](NC(=O)[C@H](CCC(=O)O)NC(=O)[C@H](CO)NC(=O)[C@@H](NC(=O)[C@@H](N)CO)C(C)C)C(=O)N[C@@H](CCC(N)=O)C(=O)N[C@@H](CC(C)C)C(=O)N[C@@H](CCSC)C(=O)N[C@@H](Cc1cnc[nH]1)C(=O)N[C@@H](CC(N)=O)C(=O)N[C@@H](CC(C)C)C(=O)NCC(=O)N[C@@H](CCCCN)C(=O)N[C@@H](Cc1cnc[nH]1)C(=O)N[C@@H](CC(C)C)C(=O)N[C@@H](CC(N)=O)C(=O)N[C@@H](CO)C(=O)N[C@@H](CCSC)C(=O)N[C@@H](CCC(=O)O)C(=O)N[C@@H](CCCN=C(N)N)C(=O)N[C@H](C(=O)N[C@@H](CCC(=O)O)C(=O)N[C@@H](Cc1c[nH]c2ccccc12)C(=O)N[C@@H](CC(C)C)C(=O)N[C@@H](CCCN=C(N)N)C(=O)N[C@@H](CCCCN)C(=O)N[C@@H](CCCCN)C(=O)N[C@@H](CC(C)C)C(=O)N[C@@H](CCC(N)=O)C(=O)N[C@@H](CC(=O)O)C(=O)N[C@H](C(=O)N[C@@H](Cc1cnc[nH]1)C(=O)N[C@@H](CC(N)=O)C(=O)N[C@@H](Cc1ccccc1)C(=O)O)C(C)C)C(C)C` [hPTH(1-34)], the AUC in the data set “in vivo [3]” is 0.827 ng·h/mL; in “in vivo [4]” (inhaled or intranasal) it was 0.732 ng·h/mL; in the data set “in vivo [5]” it was 25.6 ng·h/mL; in the data set “in vivo [6]” it was 3.48 ng·h/mL; in “in vivo [7]” (Wister) it was 0.538 ng·h/mL. The Cmax in “in vivo [3]” turned out to be 1.07 ± 0.41 ng/mL; in “in vivo [4]” (inhaled or intranasal), 0.67 ± 0.16 ng/mL; in “in vivo [5]”, 27.8 ± 15.9 ng/mL; in “in vivo [6]”, 31 ± 1.3 ng/mL; in the data set “in vivo [7]” (Wister), 0.93 ± 0.8 ng/mL. For the same molecule, the bioavailability came to 0.3 ± 0.1% in the data set “in vivo [4]”; 14.6 ± 10.7% in “in vivo [5]” (iv); 0.4 ± 0.4% in the data set “in vivo [7]” (Wistar, iv).
As to `CC[C@H](C)[C@H](NC(=O)[C@@H]1CCCN1C(=O)[C@@H](NC(=O)[C@@H](N)Cc1ccccc1)C(C)C)C(=O)N[C@@H](Cc1ccccc1)C(=O)N[C@H](C(=O)N[C@@H](Cc1ccc(O)cc1)C(=O)NCC(=O)N[C@@H](CCC(=O)O)C(=O)N[C@@H](CC(C)C)C(=O)N[C@@H](CCC(N)=O)C(=O)N[C@@H](CCCNC(=N)N)C(=O)N[C@@H](CCSC)C(=O)N[C@@H](CCC(N)=O)C(=O)N[C@@H](CCC(=O)O)C(=O)N[C@@H](CCCCN)C(=O)N[C@@H](CCC(=O)O)C(=O)N[C@@H](CCCNC(=N)N)C(=O)N[C@@H](CC(N)=O)C(=O)N[C@@H](CCCCN)C(=O)NCC(=O)N[C@@H](CCC(N)=O)C(=O)O)[C@@H](C)O` [human motilin], the “BA of human motilin” value in [8] was 1.1 ± 0.7%.
Take `CCCCCCCCCC(=O)O` [capric acid]: the “cytotoxicity and tissue damage” value was “exhibits cytotoxicity and causes tissue damage” in data set [9]; “exhibits cytotoxicity and causes tissue damage” with Caco-2 cell line.
